From US12077503B2, “Substituted cyclic amides and their use as herbicides” (FMC CORPORATION, priority 2015, dated 2024)

Key:
Test in all cases: Test E preemergence
Assay type in all cases: in vivo
Details in all cases: scale 0 to 100
[1] = system: lambsquarters (Chenopodium album)
In short: (§1)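 Compound in non-phytotoxic solvent with surfactant is applied preemergence to silt loam soil after sowing, or postemergence to plants 2 to 18 cm tall in peat-based medium. Plants grow in a greenhouse for 14 to 21 d. Each species is then compared with controls and scored visually, 0 (no effect) to 100 (complete control).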

[2] = system: nutsedge, yellow (yellow nutsedge, Cyperus esculentus)
In short: as §1

soybean (Glycine max) = system: soybean (Glycine max)
In short: as §1

[3] = system: ryegrass, Italian (Italian ryegrass, Lolium multiflorum)
In short: as §1

corn (Zea mays) = system: corn (Zea mays)
In short: as §1

Kochia (Kochia scoparia) = system: Kochia (Kochia scoparia)
In short: as §1

[4] = system: dayflower, VA (Virginia dayflower, Commelina virginica)
In short: as §1

[5] = system: velvetleaf (Abutilon theophrasti)
In short: as §1

[6] = system: pigweed, palmer (palmer pigweed, Amaranthus palmeri)
In short: as §1

[7] = system: beggarticks (hairy beggarticks, Bidens pilosa)
In short: as §1

[8] = system: field bindweed (Convolvulus arvensis)
In short: as §1

[9] = system: horseweed (Conyza canadensis)
In short: as §1

[10] = system: sandbur (southern sandbur, Cenchrus echinatus)
In short: as §1

[11] = system: crabgrass, large (large crabgrass, Digitaria sangumnalis)
In short: as §1

[12] = system: surinam grass (Brachiaria decumbens)
In short: as §1

[13] = system: crabgrass, Brazil (Brazilian crabgrass, Digitaria horizontalis)
In short: as §1

[14] = system: Panicum, fall (fall Panicum, Panicum dichotomiflorum)
In short: as §1

[15] = system: waterhemp (common waterhemp, Amaranthus rudis)
In short: as §1

[16] = system: nightshade (eastern black nightshade, Solanum ptycanthum)
In short: as §1

[17] = system: goosegrass (Eleusine indica)
In short: as §1

CN1CC(c2ccc(C(F)(F)F)cc2)C(C(=O)Nc2ccccc2S(C)(=O)=O)C1=O (centres unmarked) [Compound 624]
Plant response rating: Lambsquarters ([1]; 31 g ai/ha): 0
Plant response rating: Lambsquarters ([1]; 62 g ai/ha): 0
Plant response rating: Lambsquarters ([1]; 125 g ai/ha): 50
Plant response rating: Lambsquarters ([1]; 250 g ai/ha): 85
Plant response rating: Nutsedge, Yellow ([2]; 31 g ai/ha): 0
Plant response rating: Nutsedge, Yellow ([2]; 62 g ai/ha): 0
Plant response rating: Nutsedge, Yellow ([2]; 125 g ai/ha): 0
Plant response rating: Nutsedge, Yellow ([2]; 250 g ai/ha): 10
Plant response rating: Soybean (soybean (Glycine max); 31 g ai/ha): 0
Plant response rating: Soybean (soybean (Glycine max); 62 g ai/ha): 10
Plant response rating: Soybean (soybean (Glycine max); 125 g ai/ha): 20
Plant response rating: Soybean (soybean (Glycine max); 250 g ai/ha): 10
Plant response rating: Ryegrass, Italian ([3]; 31 g ai/ha): 0
Plant response rating: Ryegrass, Italian ([3]; 62 g ai/ha): 0
Plant response rating: Ryegrass, Italian ([3]; 125 g ai/ha): 10
Plant response rating: Ryegrass, Italian ([3]; 250 g ai/ha): 15
Plant response rating: Corn (corn (Zea mays); 31 g ai/ha): 0
Plant response rating: Corn (corn (Zea mays); 62 g ai/ha): 0
Plant response rating: Corn (corn (Zea mays); 125 g ai/ha): 10
Plant response rating: Corn (corn (Zea mays); 250 g ai/ha): 20
Plant response rating: Kochia (Kochia (Kochia scoparia); 31 g ai/ha): 0
Plant response rating: Kochia (Kochia (Kochia scoparia); 125 g ai/ha): 0
Plant response rating: Kochia (Kochia (Kochia scoparia); 250 g ai/ha): 30
Plant response rating: Dayflower, VA ([4]; 31 g ai/ha): 0
Plant response rating: Dayflower, VA ([4]; 62 g ai/ha): 0
Plant response rating: Dayflower, VA ([4]; 125 g ai/ha): 30
Plant response rating: Dayflower, VA ([4]; 250 g ai/ha): 50
Plant response rating: Velvetleaf ([5]; 31 g ai/ha): 0
Plant response rating: Velvetleaf ([5]; 62 g ai/ha): 0
Plant response rating: Velvetleaf ([5]; 125 g ai/ha): 10
Plant response rating: Velvetleaf ([5]; 250 g ai/ha): 20
Plant response rating: Pigweed, Palmer ([6]; 31 g ai/ha): 0
Plant response rating: Pigweed, Palmer ([6]; 62 g ai/ha): 25
Plant response rating: Pigweed, Palmer ([6]; 125 g ai/ha): 20
Plant response rating: Pigweed, Palmer ([6]; 250 g ai/ha): 30
Plant response rating: Beggarticks ([7]; 31 g ai/ha): 20
Plant response rating: Beggarticks ([7]; 62 g ai/ha): 25
Plant response rating: Beggarticks ([7]; 125 g ai/ha): 40
Plant response rating: Beggarticks ([7]; 250 g ai/ha): 50
Plant response rating: Field Bindweed ([8]; 31 g ai/ha): 0
Plant response rating: Field Bindweed ([8]; 62 g ai/ha): 10
Plant response rating: Field Bindweed ([8]; 125 g ai/ha): 5
Plant response rating: Field Bindweed ([8]; 250 g ai/ha): 10
Plant response rating: Horseweed ([9]; 31 g ai/ha): 30
Plant response rating: Horseweed ([9]; 62 g ai/ha): 90
Plant response rating: Horseweed ([9]; 250 g ai/ha): 85
Plant response rating: Sandbur ([10]; 31 g ai/ha): 10
Plant response rating: Sandbur ([10]; 62 g ai/ha): 30
Plant response rating: Sandbur ([10]; 125 g ai/ha): 50
Plant response rating: Sandbur ([10]; 250 g ai/ha): 50
Plant response rating: Crabgrass, Large ([11]; 31 g ai/ha): 30
Plant response rating: Crabgrass, Large ([11]; 62 g ai/ha): 85
Plant response rating: Crabgrass, Large ([11]; 125 g ai/ha): 80
Plant response rating: Crabgrass, Large ([11]; 250 g ai/ha): 90
Plant response rating: Surinam Grass ([12]; 31 g ai/ha): 20
Plant response rating: Surinam Grass ([12]; 62 g ai/ha): 30
Plant response rating: Surinam Grass ([12]; 125 g ai/ha): 40
Plant response rating: Surinam Grass ([12]; 250 g ai/ha): 70
Plant response rating: Crabgrass, Brazil ([13]; 31 g ai/ha): 80
Plant response rating: Crabgrass, Brazil ([13]; 62 g ai/ha): 80
Plant response rating: Crabgrass, Brazil ([13]; 125 g ai/ha): 95
Plant response rating: Crabgrass, Brazil ([13]; 250 g ai/ha): 100
Plant response rating: Panicum, Fall ([14]; 31 g ai/ha): 0
Plant response rating: Panicum, Fall ([14]; 62 g ai/ha): 0
Plant response rating: Panicum, Fall ([14]; 125 g ai/ha): 30
Plant response rating: Panicum, Fall ([14]; 250 g ai/ha): 60
Plant response rating: Waterhemp ([15]; 31 g ai/ha): 50
Plant response rating: Waterhemp ([15]; 62 g ai/ha): 60
Plant response rating: Waterhemp ([15]; 125 g ai/ha): 75
Plant response rating: Waterhemp ([15]; 250 g ai/ha): 70
Plant response rating: Nightshade ([16]; 31 g ai/ha): 70
Plant response rating: Nightshade ([16]; 62 g ai/ha): 75
Plant response rating: Nightshade ([16]; 125 g ai/ha): 80
Plant response rating: Nightshade ([16]; 250 g ai/ha): 80
Plant response rating: Goosegrass ([17]; 31 g ai/ha): 50
Plant response rating: Goosegrass ([17]; 62 g ai/ha): 75
Plant response rating: Goosegrass ([17]; 125 g ai/ha): 80
Plant response rating: Goosegrass ([17]; 250 g ai/ha): 100

CN1CC(c2cccc(C(F)(F)F)c2)C(C(=O)Nc2cccc(F)c2F)C1=O (centres unmarked) [Compound 636]
Plant response rating: Lambsquarters ([1]; 31 g ai/ha): 90
Plant response rating: Lambsquarters ([1]; 62 g ai/ha): 90
Plant response rating: Lambsquarters ([1]; 125 g ai/ha): 90
Plant response rating: Lambsquarters ([1]; 250 g ai/ha): 90
Plant response rating: Nutsedge, Yellow ([2]; 31 g ai/ha): 0
Plant response rating: Nutsedge, Yellow ([2]; 62 g ai/ha): 0
Plant response rating: Nutsedge, Yellow ([2]; 125 g ai/ha): 0
Plant response rating: Nutsedge, Yellow ([2]; 250 g ai/ha): 60
Plant response rating: Soybean (soybean (Glycine max); 31 g ai/ha): 0
Plant response rating: Soybean (soybean (Glycine max); 62 g ai/ha): 0
Plant response rating: Soybean (soybean (Glycine max); 125 g ai/ha): 0
Plant response rating: Soybean (soybean (Glycine max); 250 g ai/ha): 0
Plant response rating: Ryegrass, Italian ([3]; 31 g ai/ha): 40
Plant response rating: Ryegrass, Italian ([3]; 62 g ai/ha): 65
Plant response rating: Ryegrass, Italian ([3]; 125 g ai/ha): 95
Plant response rating: Ryegrass, Italian ([3]; 250 g ai/ha): 95
Plant response rating: Corn (corn (Zea mays); 31 g ai/ha): 65
Plant response rating: Corn (corn (Zea mays); 62 g ai/ha): 70
Plant response rating: Corn (corn (Zea mays); 125 g ai/ha): 80
Plant response rating: Corn (corn (Zea mays); 250 g ai/ha): 80
Plant response rating: Kochia (Kochia (Kochia scoparia); 31 g ai/ha): 85
Plant response rating: Kochia (Kochia (Kochia scoparia); 62 g ai/ha): 90
Plant response rating: Kochia (Kochia (Kochia scoparia); 125 g ai/ha): 90
Plant response rating: Kochia (Kochia (Kochia scoparia); 250 g ai/ha): 95
Plant response rating: Dayflower, VA ([4]; 31 g ai/ha): 0
Plant response rating: Dayflower, VA ([4]; 62 g ai/ha): 0
Plant response rating: Dayflower, VA ([4]; 125 g ai/ha): 35
Plant response rating: Dayflower, VA ([4]; 250 g ai/ha): 65
Plant response rating: Velvetleaf ([5]; 31 g ai/ha): 20
Plant response rating: Velvetleaf ([5]; 62 g ai/ha): 35
Plant response rating: Velvetleaf ([5]; 125 g ai/ha): 60
Plant response rating: Velvetleaf ([5]; 250 g ai/ha): 40
Plant response rating: Pigweed, Palmer ([6]; 31 g ai/ha): 0
Plant response rating: Pigweed, Palmer ([6]; 62 g ai/ha): 10
Plant response rating: Pigweed, Palmer ([6]; 125 g ai/ha): 80
Plant response rating: Pigweed, Palmer ([6]; 250 g ai/ha): 90
Plant response rating: Beggarticks ([7]; 31 g ai/ha): 0
Plant response rating: Beggarticks ([7]; 62 g ai/ha): 0
Plant response rating: Beggarticks ([7]; 125 g ai/ha): 0
Plant response rating: Beggarticks ([7]; 250 g ai/ha): 0
Plant response rating: Field Bindweed ([8]; 31 g ai/ha): 0
Plant response rating: Field Bindweed ([8]; 62 g ai/ha): 75
Plant response rating: Field Bindweed ([8]; 125 g ai/ha): 80
Plant response rating: Field Bindweed ([8]; 250 g ai/ha): 70
Plant response rating: Horseweed ([9]; 31 g ai/ha): 0
Plant response rating: Horseweed ([9]; 62 g ai/ha): 90
Plant response rating: Horseweed ([9]; 125 g ai/ha): 95
Plant response rating: Horseweed ([9]; 250 g ai/ha): 95
Plant response rating: Sandbur ([10]; 31 g ai/ha): 90
Plant response rating: Sandbur ([10]; 62 g ai/ha): 90
Plant response rating: Sandbur ([10]; 125 g ai/ha): 90
Plant response rating: Sandbur ([10]; 250 g ai/ha): 95
Plant response rating: Crabgrass, Large ([11]; 31 g ai/ha): 98
Plant response rating: Crabgrass, Large ([11]; 62 g ai/ha): 98
Plant response rating: Crabgrass, Large ([11]; 125 g ai/ha): 98
Plant response rating: Crabgrass, Large ([11]; 250 g ai/ha): 98
Plant response rating: Surinam Grass ([12]; 31 g ai/ha): 40
Plant response rating: Surinam Grass ([12]; 62 g ai/ha): 90
Plant response rating: Surinam Grass ([12]; 125 g ai/ha): 95
Plant response rating: Surinam Grass ([12]; 250 g ai/ha): 95
Plant response rating: Crabgrass, Brazil ([13]; 31 g ai/ha): 95
Plant response rating: Crabgrass, Brazil ([13]; 62 g ai/ha): 95
Plant response rating: Crabgrass, Brazil ([13]; 125 g ai/ha): 98
Plant response rating: Crabgrass, Brazil ([13]; 250 g ai/ha): 98
Plant response rating: Panicum, Fall ([14]; 31 g ai/ha): 90
Plant response rating: Panicum, Fall ([14]; 62 g ai/ha): 90
Plant response rating: Panicum, Fall ([14]; 125 g ai/ha): 100
Plant response rating: Panicum, Fall ([14]; 250 g ai/ha): 90
Plant response rating: Waterhemp ([15]; 31 g ai/ha): 25
Plant response rating: Waterhemp ([15]; 62 g ai/ha): 80
Plant response rating: Waterhemp ([15]; 125 g ai/ha): 70
Plant response rating: Waterhemp ([15]; 250 g ai/ha): 80
Plant response rating: Nightshade ([16]; 31 g ai/ha): 0
Plant response rating: Nightshade ([16]; 62 g ai/ha): 0
Plant response rating: Nightshade ([16]; 125 g ai/ha): 40
Plant response rating: Nightshade ([16]; 250 g ai/ha): 50
Plant response rating: Goosegrass ([17]; 31 g ai/ha): 50
Plant response rating: Goosegrass ([17]; 62 g ai/ha): 80
Plant response rating: Goosegrass ([17]; 125 g ai/ha): 90
Plant response rating: Goosegrass ([17]; 250 g ai/ha): 95
